Laboratory results taken from patent US10206937B2, “Boronic acid derivatives and therapeutic uses thereof” (Qpex Biopharma, Inc., priority 2014, dated 2019).

System: strains of Enterobacteriaceae producing various carbapenemases (class A, D and B; 104 strains)
Test: Antibiotics potentiation by Compound 27 (MIC; meropenem, doripenem, ertapenem, cefepime)
Assay type: cell-based
Conditions: + 27 = with Compound 27 at fixed 4 μg/ml

Question: `C[C@@H](O)[C@H]1C(=O)N2C(C(=O)O)=C(S[C@@H]3CN[C@H](CNS(N)(=O)=O)C3)[C@H](C)[C@H]12` [D] was tested. Which MIC (strain CF1012 Citrobacter freundii (KPC-2)) did it give?
Answer: Y (MIC of 1 μg/mL to 10 μg/mL)

Question: What about the MIC (strain CF1021 Citrobacter freundii (CMY-type; VIM-1)) of the same molecule?
Answer: Y (MIC of 1 μg/mL to 10 μg/mL)

Question: And the MIC (strain CF1022 Citrobacter freundii (SHV-12(2be), TEM-OSBL(2b); IMP-8))?
Answer: Y (MIC of 1 μg/mL to 10 μg/mL)

Question: What about the MIC (strain CF1023 Citrobacter freundii (SHV-12(2be), TEM-OSBL(2b); CTX-M-3; CMY-34; NDM-1)) of the same molecule?
Answer: Z (MIC of greater than 10 μg/mL)

Question: And the MIC (strain CL1080 Enterobacter cloacae (IMP-1))?
Answer: X (MIC of less than 1 μg/mL)

Question: And the MIC (strain EA1019 Enterobacter aerogenes (SHV-5, VIM-1))?
Answer: Z (MIC of greater than 10 μg/mL)

Question: What about the MIC (strain EC1007 Escherichia coli (KPC-3)) of the same molecule?
Answer: X (MIC of less than 1 μg/mL)

Question: And the MIC (strain EC1061 Escherichia coli (NDM-1, CMY-6))?
Answer: Z (MIC of greater than 10 μg/mL)

Question: What about the MIC (strain EC1062 Escherichia coli (OXA-48, CTX-M-15)) of the same molecule?
Answer: X (MIC of less than 1 μg/mL)

Question: What about the MIC (strain EC1064 Escherichia coli (NDM-1, CMY-6, CTX-M-15)) of the same molecule?
Answer: Z (MIC of greater than 10 μg/mL)

Question: What about the MIC (strain EC1065 Escherichia coli (IMP-1)) of the same molecule?
Answer: Y (MIC of 1 μg/mL to 10 μg/mL)

Question: And the MIC (strain EC1068 Escherichia coli (VIM-1))?
Answer: Z (MIC of greater than 10 μg/mL)

Question: What about the MIC (strain EC1069 Escherichia coli (CTX-M-27; NDM-1)) of the same molecule?
Answer: Z (MIC of greater than 10 μg/mL)

Question: What about the MIC (strain EC1070 Escherichia coli (TEM-OSBL(2b); CMY-42; NDM-5)) of the same molecule?
Answer: Z (MIC of greater than 10 μg/mL)

Question: What about the MIC (strain EC1072 Escherichia coli (CTX-M-3; NDM-1)) of the same molecule?
Answer: Z (MIC of greater than 10 μg/mL)

Question: What about the MIC (strain ECL1004 Enterobacter cloacae (NMC-A)) of the same molecule?
Answer: Y (MIC of 1 μg/mL to 10 μg/mL)

Question: What about the MIC (strain ECL1026 Enterobacter cloacae (KPC-2, TEM-1)) of the same molecule?
Answer: Y (MIC of 1 μg/mL to 10 μg/mL)

Question: And the MIC (strain ECL1036 Enterobacter cloacae (KPC-3, TEM-1))?
Answer: Y (MIC of 1 μg/mL to 10 μg/mL)

Question: And the MIC (strain ECL1045 Enterobacter cloacae (VIM-1))?
Answer: Y (MIC of 1 μg/mL to 10 μg/mL)

Question: And the MIC (strain ECL1055 Enterobacter cloacae (KPC-3, TEM))?
Answer: Y (MIC of 1 μg/mL to 10 μg/mL)

Question: What about the MIC (strain ECL1057 Enterobacter cloacae (NDM-1, TEM-1, CTX-M-15)) of the same molecule?
Answer: Z (MIC of greater than 10 μg/mL)

Question: And the MIC (strain ECL1058 Enterobacter cloacae (KPC-3, SHV-11, TEM-1))?
Answer: Z (MIC of greater than 10 μg/mL)

Question: And the MIC (strain ECL1059 Enterobacter cloacae (KPC-3, SHV-12, TEM-1))?
Answer: Y (MIC of 1 μg/mL to 10 μg/mL)

Question: What about the MIC (strain ECL1061 Enterobacter cloacae (KPC-3, Hyper AmpC expression)) of the same molecule?
Answer: Y (MIC of 1 μg/mL to 10 μg/mL)

Question: And the MIC (strain ECL1082 Enterobacter cloacae (VIM-1))?
Answer: Z (MIC of greater than 10 μg/mL)

Question: What about the MIC (strain ECL1084 Enterobacter cloacae (CTX-M-15; ACT-16; NDM-1)) of the same molecule?
Answer: Z (MIC of greater than 10 μg/mL)

Question: What about the MIC (strain ECL1085 Enterobacter cloacae (SHV-31(2be), TEM-1(2b); CTX-M-15; NDM-1)) of the same molecule?
Answer: Z (MIC of greater than 10 μg/mL)

Question: What about the MIC (strain ECL1086 Enterobacter cloacae (VIM-31, OXA-48(c))) of the same molecule?
Answer: Y (MIC of 1 μg/mL to 10 μg/mL)

Question: And the MIC (strain ECL1087 Enterobacter cloacae (VIM-1))?
Answer: Z (MIC of greater than 10 μg/mL)

Question: What about the MIC (strain ECL1088 Enterobacter cloacae (TEM-1(2b); CTX-M-14; ACT-type; VIM-1)) of the same molecule?
Answer: Z (MIC of greater than 10 μg/mL)

Question: What about the MIC (strain ECL1089 Enterobacter cloacae (ACT-type; IMP-1)) of the same molecule?
Answer: Z (MIC of greater than 10 μg/mL)

Question: What about the MIC (strain ECL1090 Enterobacter cloacae (TEM-1(2b); CTX-M-22; ACT-type; IMP-8)) of the same molecule?
Answer: Y (MIC of 1 μg/mL to 10 μg/mL)

Question: What about the MIC (strain ECL1091 Enterobacter cloacae (VIM-1)) of the same molecule?
Answer: Z (MIC of greater than 10 μg/mL)

Question: What about the MIC (strain ECL1092 Enterobacter cloacae (TEM-OSBL(2b); ACT-32; VIM-1)) of the same molecule?
Answer: Y (MIC of 1 μg/mL to 10 μg/mL)

Question: And the MIC (strain ECL1093 Enterobacter cloacae (TEM-OSBL(2b); ACT-32; VIM-1))?
Answer: Y (MIC of 1 μg/mL to 10 μg/mL)

Question: And the MIC (strain ECL1094 Enterobacter cloacae (VIM-1))?
Answer: Z (MIC of greater than 10 μg/mL)

Question: And the MIC (strain ECL1096 Enterobacter cloacae (CMY-4, VIM-4, OXA-48(c)))?
Answer: Y (MIC of 1 μg/mL to 10 μg/mL)

Question: What about the MIC (strain ECL1097 Enterobacter cloacae (SHV-31(2be), TEM-OSBL(2b); CTX-M-15; ACT-31; NDM-1)) of the same molecule?
Answer: Z (MIC of greater than 10 μg/mL)

Question: What about the MIC (strain ECL1098 Enterobacter cloacae (TEM-OSBL(2b); DHA-1; ACT-16; NDM-1)) of the same molecule?
Answer: Z (MIC of greater than 10 μg/mL)

Question: And the MIC (strain KP1001 Klebsiella pneumoniae (KPC TEM SHV))?
Answer: Z (MIC of greater than 10 μg/mL)

Question: What about the MIC (strain KP1002 Klebsiella pneumoniae (KPC TEM SHV)) of the same molecule?
Answer: Y (MIC of 1 μg/mL to 10 μg/mL)

Question: What about the MIC (strain KP1003 Klebsiella pneumoniae (KPC TEM SHV)) of the same molecule?
Answer: Y (MIC of 1 μg/mL to 10 μg/mL)

Question: What about the MIC (strain KP1004 Klebsiella pneumoniae (KPC-2, TEM-1, SHV-11)) of the same molecule?
Answer: Y (MIC of 1 μg/mL to 10 μg/mL)

Question: What about the MIC (strain KP1008 Klebsiella pneumoniae (KPC-2)) of the same molecule?
Answer: X (MIC of less than 1 μg/mL)

Question: What about the MIC (strain KP1014 Klebsiella pneumoniae (VIM-1, TEM, SHV)) of the same molecule?
Answer: Z (MIC of greater than 10 μg/mL)

Question: What about the MIC (strain KP1054 Klebsiella pneumoniae (VIM-1, SHV-11)) of the same molecule?
Answer: Z (MIC of greater than 10 μg/mL)

Question: What about the MIC (strain KP1059 Klebsiella pneumoniae (VIM-1, SHV-11)) of the same molecule?
Answer: Z (MIC of greater than 10 μg/mL)

Question: And the MIC (strain KP1061 Klebsiella pneumoniae (KPC-3, SHV-11, TEM-1))?
Answer: Z (MIC of greater than 10 μg/mL)

Question: What about the MIC (strain KP1064 Klebsiella pneumoniae (KPC-2, SHV-11, TEM-1)) of the same molecule?
Answer: Z (MIC of greater than 10 μg/mL)

Question: And the MIC (strain KP1065 Klebsiella pneumoniae (VIM-1, SHV-11))?
Answer: Y (MIC of 1 μg/mL to 10 μg/mL)

Question: What about the MIC (strain KP1070 Klebsiella pneumoniae (KPC-2, SHV-11, TEM-1)) of the same molecule?
Answer: Y (MIC of 1 μg/mL to 10 μg/mL)

Question: And the MIC (strain KP1074 Klebsiella pneumoniae (KPC-3, SHV-11, TEM))?
Answer: Z (MIC of greater than 10 μg/mL)
